Data reported in patent publication US20040086942A1, “Ige receptor antagonists” (priority 2003, published 2004).
Read-outs that look alike come from different tables or passages of the source. Where a SMILES comes first, the peptide text is derived from it. Bridges are numbered along the chain shown (N, C = ends). [ ]: non-standard residue; d: D form.

Tests used:
[1] = target: T1, alpha subunit of the human FcεRI receptor (Homo sapiens, UniProt P12319); experiment: cell-based 125I-IgE binding inhibition assay on CHO FcεRI+ cells
T1 construct: expressed in transfected cells; host or cells: Chinese hamster ovary (CHO FcεRI+) cells
T1 sequence (P12319 26-257): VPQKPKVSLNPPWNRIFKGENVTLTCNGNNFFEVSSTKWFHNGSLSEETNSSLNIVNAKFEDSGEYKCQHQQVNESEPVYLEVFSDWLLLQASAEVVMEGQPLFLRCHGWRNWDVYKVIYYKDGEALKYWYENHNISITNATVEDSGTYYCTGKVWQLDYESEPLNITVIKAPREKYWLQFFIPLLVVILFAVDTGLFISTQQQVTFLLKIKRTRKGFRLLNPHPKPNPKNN
Method: . The following day the cells were rinsed three times with PBS and then once with F12/DMEM. Peptide stocks were reconstituted in 100 mM Hepes buffered water, pH 7.2, at a concentration of 5 mg/mL. Working concentrations of the peptide were diluted in assay buffer (see below). 75 ul, of a desired concentration of peptide was added to the top row of a separate 96 well microtiter plate and serially diluted 1:3 in 50 uL of the assay buffer (F12/DMEM, 1% BSA, 0.05% NaN3 and […] Hepes pH 7.2). Starting concentrations ranged from 50-500 uM. Next, 50 uL of the diluted peptide was transferred to the 96 microtiter well plate containing a monolayer of CHO FcεRI+ cells. After a 1 hour incubation at room temperature, 50 uL of ^125I-IgE (1.5 nM) was added to each well and incubated for an additional 45-60 minutes at 4° C. followed by 5 washes with 200 uL of assay buffer. Cells were solubilized with 200 uL of 1 N NaOH and transferred to a 96 microtiter tube for counting in a gamma counter to determine counts bound. The data were plotted using KaleidaGraph 3.0 and fitted using 4-parameter fits. IC50 values were determined for each peptide.
Six peptides based on selected clones from library #516 were synthesized and assayed for the ability to inhibit the binding of ^125I-IgE to a Chinese hamster ovary cell line expressing the alpha subunit of the IgE high affinity receptor, FcεRI. The peptides were synthesized as nine residue monomers and oxidized to allow the formation of a disulfide bridge resulting in a cyclic peptide. The size of each peptide was confirmed by mass spectrometry.

[2] = 2D NMR structural score versus reference peptide; assay type: physicochemical; parameters: key to Struct. Score: +++ indicates the peptide is structured similarly to IGE063 (SEQ ID NO:49); + indicates the peptide is structured similarly to IGE063 (SEQ ID NO:49), but is less stable; −/+ indicates the peptide has some elements of stable structure, but the conformation differs from the reference structure (e.g., a different turn type is evident); − indicates the peptide is predominantly unstructured in aqueous solution; key to Structure Score: +++, peptide structurally similar to reference; +, structurally similar to reference but significantly less stable; +/−, peptide has some elements of stable structure, but the conformation differs from the reference structure; −, peptide is predominantly unstructured; *peptide IGE037 (SEQ ID NO:128) was initially unstructured (monomeric form), but became structured after spontaneous dimer formation; conditions: for Struct. Score: reference IGE063; for Structure Score: reference IGE134
Method: Peptides were evaluated by 2D NMR spectroscopy to assess the effect of substitutions on the three-dimensional structure of the peptide analog. All peptides with a structural score indicated in Table 5 were analyzed by 2D NMR spectroscopy; backbone ^1H resonances were assigned and ^3JHN-Hα coupling constants were measured and compared to the reference peptide (IGE063, SEQ ID NO:49; see Example 5). Peptides are defined to be of similar structure to the reference peptide provided chemical shifts, coupling constants, and NOEs are consistent with that structure.
A structural score was assigned to peptides analyzed by 2D NMR spectroscopy. For each of these peptides, backbone ^1H resonances have been assigned, and the ^3JHN-Ha coupling constants have been measured and compared to the reference peptide (i.e., IGE134 (SEQ ID NOS:155, 171)). Peptides are defined to be of similar structure to the reference peptide provided. chemical shifts, coupling constants, and NOEs are consistent with that structure.

[3] = inhibition of labeled IgE-binding to CHO FcεRI+ cells, read-out: Mean IC50(uM) ± S.D.
[4] = IGE037: initially, read-out: IC50

Row | Compound | Struct. Score [2] | Structure Score [2] | further results
1 | CSCC[C@H](NC(=O)[C@@H]1CSSC[C@H](NC(=O)[C@H](CCCNC(=N)N)NC(=O)[C@@H]2CCCN2C(=O)[C@H](CC(C)C)NC(=O)[C@H](CC(N)=O)NC(C)=O)C(=O)N[C@@H]([C@@H](C)O)C(=O)N[C@@H](CCC(=O)O)C(=O)NCC(=O)N2CCC[C@H]2C(=O)N[C@@H](Cc2c[nH]c3ccccc23)C(=O)NCC(=O)N[C@@H](Cc2c[nH]c3ccccc23)C(=O)N[C@@H](C(C)C)C(=O)N1)C(=O)N[C@@H](C)C(=O)N[C@@H](CC(=O)O)C(=O)N[C@@H](CC(=O)O)C(N)=O [IGE031, Ac-NLPRCTEGPWGWVCMADD-nh2] (Ac-NLPRCTEGPWGWVCMADD-NH2; disulfide 5-14) | +++ |  | IC50 [1, 3]: 1.1 ± 0.7 µM
2 | CC(=O)N[C@@H](C)C(=O)N[C@@H](CC(C)C)C(=O)N[C@H]1CSSC[C@@H](C(=O)N[C@@H](Cc2ccc(O)cc2)C(=O)N[C@H](C(N)=O)C(C)C)NC(=O)[C@H](C(C)C)NC(=O)[C@H](C)NC(=O)[C@@H]2CCCN2C1=O [IGE038, Ac-ALCPAVCYV-nh2] (Ac-ALCPAVCYV-NH2; disulfide 3-7) |  | − | IC50 [1, 4]: > 500 µM
3 | CSCC[C@H](NC(=O)[C@@H]1CSSC[C@H](NC(=O)[C@H](CCCNC(=N)N)NC(=O)[C@@H]2CCCN2C(=O)[C@H](CC(C)C)NC(=O)[C@@H](N)CC(N)=O)C(=O)N[C@@H]([C@@H](C)O)C(=O)N[C@@H](CCC(=O)O)C(=O)NCC(=O)N2CCC[C@H]2C(=O)N[C@@H](Cc2c[nH]c3ccccc23)C(=O)NCC(=O)N[C@@H](Cc2c[nH]c3ccccc23)C(=O)N[C@@H](C(C)C)C(=O)N1)C(=O)O [IGE062, NLPRCTEGPWGWVCM] (H-NLPRCTEGPWGWVCM-OH; disulfide 5-14; N-terminus and C-terminus assumed) | +++ |  | IC50 [1, 3]: 1 ± 0.6 µM
4 | CSCC[C@H](NC(=O)[C@@H]1CSSC[C@H](NC(=O)[C@H](CCCNC(=N)N)NC(=O)[C@@H]2CCCN2C(=O)[C@H](CC(C)C)NC(=O)[C@H](CC(N)=O)NC(C)=O)C(=O)N[C@@H]([C@@H](C)O)C(=O)N[C@@H](CCC(=O)O)C(=O)NCC(=O)N2CCC[C@H]2C(=O)N[C@@H](Cc2c[nH]c3ccccc23)C(=O)NCC(=O)N[C@@H](Cc2c[nH]c3ccccc23)C(=O)N[C@@H](C(C)C)C(=O)N1)C(=O)O [IGE063, Ac-NLPRCTEGPWGWVCM] (Ac-NLPRCTEGPWGWVCM-OH; disulfide 5-14) | +++ |  | IC50 [1, 4]: ~1 µM; IC50 [1, 3]: 1.8 ± 0.7 µM
5 | CSCC[C@H](NC(=O)[C@@H]1CSSC[C@H](NC(=O)[C@H](CCCNC(=N)N)NC(=O)[C@@H]2CCCN2C(=O)[C@H](CC(C)C)NC(=O)[C@H](CC(N)=O)NC(C)=O)C(=O)N[C@@H]([C@@H](C)O)C(=O)N[C@@H](CCC(=O)O)C(=O)NCC(=O)N2CCC[C@H]2C(=O)N[C@@H](Cc2c[nH]c3ccccc23)C(=O)N[C@H](C)C(=O)N[C@@H](Cc2c[nH]c3ccccc23)C(=O)N[C@@H](C(C)C)C(=O)N1)C(=O)O [IGE105, Ac-NLPRCTEGPWaWVCM] (Ac-NLPRCTEGPW[dA]WVCM-OH; disulfide 5-14; C-terminus assumed) | +++ |  | 
6 | CSCC[C@H](NC(=O)[C@@H]1CSSC[C@H](NC(=O)[C@H](CCCNC(=N)N)NC(=O)[C@@H]2CCCN2C(=O)[C@H](CC(C)C)NC(=O)[C@H](CC(N)=O)NC(C)=O)C(=O)N[C@@H]([C@@H](C)O)C(=O)N[C@@H](CCC(=O)O)C(=O)NCC(=O)N2CCC[C@H]2C(=O)N[C@@H](C(C)C)C(=O)NCC(=O)N[C@@H](Cc2c[nH]c3ccccc23)C(=O)N[C@@H](C(C)C)C(=O)N1)C(=O)O [IGE106, Ac-NLPRCTEGPVGWVCM] (Ac-NLPRCTEGPVGWVCM-OH; disulfide 5-14; C-terminus assumed) | +++ |  | 
7 | CSCC[C@H](NC(=O)[C@@H]1CSSC[C@H](NC(=O)[C@@H]2CCCN2C(=O)[C@H](CC(C)C)NC(=O)[C@H](CC(N)=O)NC(C)=O)C(=O)N[C@@H]([C@@H](C)O)C(=O)N[C@@H](CCC(=O)O)C(=O)NCC(=O)N2CCC[C@H]2C(=O)N[C@@H](Cc2c[nH]c3ccccc23)C(=O)NCC(=O)N[C@@H](Cc2c[nH]c3ccccc23)C(=O)N[C@@H](C(C)C)C(=O)N1)C(=O)O [IGE107, Ac-NLPCTEGPWGWVCM] (Ac-NLPCTEGPWGWVCM-OH; disulfide 4-13) | + |  | 
8 | CSCC[C@H](NC(=O)[C@@H]1CSSC[C@H](NC(=O)[C@H](CCCNC(=N)N)NC(=O)[C@@H]2CCCN2C(=O)[C@H](CC(C)C)NC(=O)[C@H](CC(N)=O)NC(C)=O)C(=O)N[C@@H]([C@@H](C)O)C(=O)N[C@@H](CCC(=O)O)C(=O)NCC(=O)N2CCC[C@H]2C(=O)N[C@@H](Cc2c[nH]c3ccccc23)C(=O)NCC(=O)N[C@@H](CC(C)C)C(=O)N[C@@H](C(C)C)C(=O)N1)C(=O)O [IGE109, Ac-NLPRCTEGPWGLVCM] (Ac-NLPRCTEGPWGLVCM-OH; disulfide 5-14; C-terminus assumed) | +++ |  | 
9 | CC(C)C[C@@H]1NC(=O)[C@H](C)NC(=O)[C@H](Cc2c[nH]cn2)NC(=O)CNC(=O)CNC(=O)[C@H](C(C)C)NC(=O)[C@H](Cc2ccc(O)cc2)NC(=O)[C@@H]2CSSC[C@H](NC1=O)C(=O)N1CCC[C@H]1C(=O)N[C@@H](CC(=O)O)C(=O)N[C@@H](C(C)C)C(=O)N[C@H](C(=O)N[C@@H](Cc1ccc(O)cc1)C(=O)N[C@H](C(=O)NCC(=O)N[C@@H](CCCNC(=N)N)C(=O)O)C(C)C)CSSC[C@H](NC(=O)[C@H](CCC(N)=O)NC(=O)[C@@H](N)C(C)C)C(=O)N1CCC[C@H]1C(=O)N[C@@H](Cc1c[nH]cn1)C(=O)N[C@@H](Cc1ccccc1)C(=O)N2 [IGE132] (H-VQCPHFCYVGGHALCPDVCYVGR-OH; disulfide 3-19, 7-15) |  | +++ | 
10 | CC(C)C[C@@H]1NC(=O)[C@H](C)NC(=O)[C@H](Cc2c[nH]cn2)NC(=O)CNC(=O)CNC(=O)[C@H](C(C)C)NC(=O)[C@H](Cc2ccc(O)cc2)NC(=O)[C@@H]2CSSC[C@H](NC1=O)C(=O)N[C@@H](C)C(=O)N[C@@H](CC(=O)O)C(=O)N[C@@H](C(C)C)C(=O)N[C@H](C(=O)N[C@@H](Cc1ccc(O)cc1)C(=O)N[C@H](C(=O)NCC(=O)N[C@@H](CCCNC(=N)N)C(=O)O)C(C)C)CSSC[C@H](NC(=O)[C@H](CCC(N)=O)NC(=O)[C@@H](N)C(C)C)C(=O)N1CCC[C@H]1C(=O)N[C@@H](Cc1c[nH]cn1)C(=O)N[C@@H](Cc1ccccc1)C(=O)N2 [IGE143] (H-VQCPHFCYVGGHALCADVCYVGR-OH; disulfide 3-19, 7-15 (inferred)) |  | +++ | 
11 | CC(C)C[C@@H]1NC(=O)[C@H](CCC(=O)O)NC(=O)[C@H](Cc2ccc(O)cc2)NC(=O)[C@@H]2CSSC[C@H](NC(=O)[C@H](CC(C)C)NC(=O)[C@H](CCC(=O)O)NC(=O)[C@H](Cc3ccc(O)cc3)NC(=O)[C@H](CC(=O)O)NC1=O)C(=O)N1CCC[C@H]1C(=O)N[C@@H](CC(=O)O)C(=O)N[C@@H](C(C)C)C(=O)N[C@H](C(=O)N[C@@H](Cc1ccc(O)cc1)C(=O)N[C@H](C(=O)NCC(=O)N[C@@H](CCCNC(=N)N)C(=O)O)C(C)C)CSSC[C@H](NC(=O)[C@H](CCC(N)=O)NC(=O)[C@@H](N)C(C)C)C(=O)N1CCC[C@H]1C(=O)N[C@@H](Cc1c[nH]cn1)C(=O)N[C@@H](Cc1ccccc1)C(=O)N2 [IGE156] (H-VQCPHFCYELDYELCPDVCYVGR-OH; disulfide 3-19, 7-15 (inferred)) |  | +++ | 
12 | Ac-NLPRCTEG(hyP)WGWVCM [IGE101] | +++ |  | 
13 | Ac-NLPRCTEGPWGWVCM [IGE108] | + |  | 
